# Results published in patent US7618802B2 (priority 2003, dated 2009).
# What was measured:
# [1] = system: icSARS-CoV; assay type: cell-based, SARS-CoV; conditions: single dose of 500 μg/ml at 1 hr pi
# [2] = system: wild type SARS-CoV; assay type: cell-based; conditions: single dose of 500 μg/ml at 1 hr pi
smiles,measurement,setting,value
"CCOC(=O)[C@H]1O[C@@H]1C(=O)N[C@@H](CC(C)C)C(=O)NCCC(C)C (relative stereo) [E64-d, {2S, 3S}-trans-epoxysuccinyl-L-leucylamido-3-methylbutane ethyl ester]",viral CPE and viral antigen expression,[1],almost complete elimination
same,reduction in virus yield,[1]; 24 and 48 hrs postinfection,3-4 log
same,viral CPE and viral antigen expression,[2],almost complete elimination
same,reduction in virus yield,[2]; 24 and 48 hrs postinfection,3-4 log
